The values below come from patent US12281122B1, “PI3K inhibitors” (Cogent Biosciences, Inc., priority 2023, dated 2025).

SMILES strings stand for the structures.

For assay [1], the system named is SKBR3 (PI3Kα-Wild Type) cell line. The assay can be described thus: HTRF phospho-AKT(S473) cell assay in SKBR3 cells. Type of assay: cell-based, human. The procedure, abridged:
(§1)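 Cells plated overnight (T47D in RPMI/10% FBS/0.2 units/mL insulin; SKBR3 in McCoy's 5A/10% FBS), then given 12-point 1:3 compound series (top 5 μM T47D, 10 μM SKBR3; ≤0.5% DMSO) for 2 h at 37° C. SKBR3 stimulated with 70 ng/ml PDGF-BB for final 15 min. Lysate pAKT(S473) by HTRF; IC50 calculated.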
For orientation: TR-FRET usually uses a lanthanide donor and a delayed reading to cut background.

For assay [2], the system named is T47D (PI3Kα-H1047R) cell line. Put plainly: HTRF phospho-AKT(S473) cell assay in T47D cells. Type of assay: cell-based, human. The method, boiled down:
as §1

The mark [3] stands for this setting: Homo sapiens, SK-BR-3; HTRF phospho-AKT(S473), SKBR3 (PI3Kα-Wild Type) cells, 2 hours compound incubation, PDGF-BB stimulated.
Setting [4] is: Homo sapiens; HTRF phospho-AKT(S473), T47D (PI3Kα-H1047R) cells, 2 hours compound incubation.
Setting [5] is: Homo sapiens, SK-BR-3; SKBR3 (PI3Kα-Wild Type) cells, HTRF phospho-AKT(S473), 2 hours compound incubation, PDGF-BB stimulated.
The mark [6] stands for this setting: Homo sapiens; T47D (PI3Kα-H1047R) cells, HTRF phospho-AKT(S473), 2 hours compound incubation.

Usually IC50 stands for the concentration that gives 50% inhibition. Lower therefore signals greater potency in that assay. Consider `COc1cc([C@H]2[C@@H]3CN(c4nc5c([C@@H](C)Nc6ccc(Cl)nc6C(=O)NS(C)(=O)=O)cc(C)cc5c(=O)n4C)C[C@@H]32)ccn1` [Compound 474, 6-chloro-3-(((R)-1-(2-((1R,5S,6S)-6-(2-methoxypyridin-4-yl)-3-azabicyclo[3.1.0]hexan-3-yl)-3,6-dimethyl-4-oxo-3,4-dihydroquinazolin-8-yl)ethyl)amino)-N-(methylsulfonyl) picolinamide], for which the IC50 in assay [1] (setting [3]) was no less than 5000 nM; in assay [2] (setting [4]) it was 250 to 500 nM.
In the case of `Cc1cc([C@@H](C)Nc2ccc(Cl)nc2C(=O)NS(C)(=O)=O)c2nc(N3Cc4cccc(-c5cnn(C)c5)c4C3)n(C)c(=O)c2c1` [Compound 273, (R)-6-chloro-3-((1-(3,6-dimethyl-2-(4-(1-methyl-1H-pyrazol-4-yl)isoindolin-2-yl)-4-oxo-3,4-dihydroquinazolin-8-yl)ethyl)amino)-N-(methylsulfonyl) picolinamide], the results for the IC50 in assay [1] (setting [5]) and in assay [2] (setting [6]) were no less than 5000 nM and less than 250 nM, respectively.
`Cc1cc([C@@H](C)Nc2ccc(Cl)nc2C(=O)NS(C)(=O)=O)c2nc(N3C[C@@H]4C[C@H]3CN4c3ncc(Cl)cn3)n(C)c(=O)c2c1` [Compound 667, 6-chloro-3-(((R)-1-(2-((1S,4S)-5-(5-chloropyrimidin-2-yl)-2,5-diazabicyclo [2.2.1]heptan-2-yl)-3,6-dimethyl-4-oxo-3,4-dihydroquinazolin-8-yl)ethyl)amino)-N-(methylsulfonyl) picolinamide]: the half-inhibitory concentration (IC50) was no less than 5000 nM in assay [1] (setting [3]) and 500 to 1000 nM in assay [2] (setting [4]).
The matching figures for `COc1cc(C2CCN(c3nc4c([C@@H](C)Nc5ccc(Cl)nc5C(=O)NS(C)(=O)=O)cc(C)cc4c(=O)n3C)CC2)nn1C` [Compound 704, (R)-6-chloro-3-((1-(2-(4-(5-methoxy-1-methyl-1H-pyrazol-3-yl)piperidin-1-yl)-3,6-dimethyl-4-oxo-3,4-dihydroquinazolin-8-yl)ethyl)amino)-N-(methylsulfonyl) picolinamide]: no less than 5000 nM and 250 to 500 nM.
The matching figures for `Cc1cc([C@@H](C)Nc2ccc(Cl)nc2C(=O)NS(C)(=O)=O)c2nc(N3C[C@@H]4[C@H](C3)[C@H]4c3cc(C4CC4)[nH]n3)n(C)c(=O)c2c1` [Compound 524, 6-chloro-3-(((R)-1-(2-((1R,5S,6R)-6-(5-cyclopropyl-1H-pyrazol-3-yl)-3-azabicyclo[3.1.0]hexan-3-yl)-3,6-dimethyl-4-oxo-3,4-dihydroquinazolin-8-yl)ethyl)amino)-N-(methylsulfonyl) picolinamide]: 1000 to 5000 nM and less than 250 nM.
`Cc1cc([C@@H](C)Nc2ccc(Cl)nc2C(=O)NS(C)(=O)=O)c2nc([C@H]3[C@@H]4CN(c5ncc(F)cn5)C[C@@H]43)n(C)c(=O)c2c1` [Compound 827, 6-chloro-3-(((R)-1-(2-((1R,5S,6r)-3-(5-fluoropyrimidin-2-yl)-3-azabicyclo[3.1.0]hexan-6-yl)-3,6-dimethyl-4-oxo-3,4-dihydroquinazolin-8-yl)ethyl)amino)-N-(methylsulfonyl) picolinamide]: the results for the IC50 in assay [1] (setting [3]) and in assay [2] (setting [4]) were no less than 5000 nM and 500 to 1000 nM, respectively.
The matching figures for `Cc1cc([C@@H](C)Nc2ccc(Cl)nc2C(=O)NS(C)(=O)=O)c2nc(N3C[C@H]4C[C@@H]3CN4c3ccc(N)cn3)n(C)c(=O)c2c1` [Compound 597, 3-(((R)-1-(2-((1R,4R)-5-(5-aminopyridin-2-yl)-2,5-diazabicyclo [2.2.1]heptan-2-yl)-3,6-dimethyl-4-oxo-3,4-dihydroquinazolin-8-yl)ethyl)amino)-6-chloro-N-(methylsulfonyl) picolinamide]: no less than 5000 nM and 1000 to 5000 nM.
Take `Cc1cc([C@@H](C)Nc2ccc(Cl)nc2C(=O)NS(C)(=O)=O)c2nc(N3CCc4nn(CC5COC5)cc4C3)n(C)c(=O)c2c1` [Compound 289, (R)-6-chloro-3-((1-(3,6-dimethyl-2-(2-(oxetan-3-ylmethyl)-2,4,6,7-tetrahydro-5H-pyrazolo[4,3-c]pyridin-5-yl)-4-oxo-3,4-dihydroquinazolin-8-yl)ethyl)amino)-N-(methylsulfonyl) picolinamide]: the 50% inhibitory concentration (IC50) in assay [1] (setting [5]) was no less than 5000 nM; in assay [2] (setting [6]), less than 250 nM.
The matching figures for `Cc1cc([C@@H](C)Nc2ccc(Cl)nc2C(=O)NS(C)(=O)=O)c2nc(N3CCC[C@H](c4ccc(C)nc4)C3)n(C)c(=O)c2c1` (relative stereo) [Compound 237, 6-chloro-3-(((R)-1-(3,6-dimethyl-2-((R*)-3-(6-methylpyridin-3-yl)piperidin-1-yl)-4-oxo-3,4-dihydroquinazolin-8-yl)ethyl)amino)-N-(methylsulfonyl) picolinamide]: 1000 to 5000 nM and less than 250 nM.
On to `Cc1cc([C@@H](C)Nc2ccc(Cl)nc2C(=O)NS(C)(=O)=O)c2nc(N3C[C@@H]4C[C@H]3CN4c3ccc(F)cn3)n(C)c(=O)c2c1` [Compound 623, 6-chloro-3-(((R)-1-(2-((1S,4S)-5-(5-fluoropyridin-2-yl)-2,5-diazabicyclo [2.2.1]heptan-2-yl)-3,6-dimethyl-4-oxo-3,4-dihydroquinazolin-8-yl)ethyl)amino)-N-(methylsulfonyl) picolinamide], for which the results for the concentration for half-maximal inhibition (IC50) in assay [1] (setting [3]) and in assay [2] (setting [4]) were no less than 5000 nM and 250 to 500 nM, respectively.
With `Cc1cc([C@@H](C)Nc2ccc(Cl)nc2C(=O)NS(C)(=O)=O)c2nc(C3CCN(c4ccn(C)n4)CC3)n(C)c(=O)c2c1` [Compound 223, (R)-6-chloro-3-((1-(3,6-dimethyl-2-(1-(1-methyl-1H-pyrazol-3-yl)piperidin-4-yl)-4-oxo-3,4-dihydroquinazolin-8-yl)ethyl)amino)-N-(methylsulfonyl) picolinamide], the figures for the half-maximal inhibitory concentration (IC50) in assay [1] (setting [5]) and in assay [2] (setting [6]) were 1000 to 5000 nM and less than 250 nM, respectively.
As to `CC(=O)Nc1ccc(C2CCN(c3nc4c([C@@H](C)Nc5ccc(Cl)nc5C(=O)NS(C)(=O)=O)cc(C)cc4c(=O)n3C)CC2)cn1` [Compound 254, (R)-3-((1-(2-(4-(6-acetamidopyridin-3-yl)piperidin-1-yl)-3,6-dimethyl-4-oxo-3,4-dihydroquinazolin-8-yl)ethyl)amino)-6-chloro-N-(methylsulfonyl) picolinamide], the 50% inhibitory concentration (IC50) in assay [1] (setting [5]) was 1000 to 5000 nM; in assay [2] (setting [6]), less than 250 nM.
Regarding `Cc1cc([C@@H](C)Nc2ccc(Cl)nc2C(=O)NS(C)(=O)=O)c2nc(N3C[C@H]4C[C@@H]3CN4c3ncc(F)cn3)n(C)c(=O)c2c1` [Compound 668, 6-chloro-3-(((R)-1-(2-((1R,4R)-5-(5-fluoropyrimidin-2-yl)-2,5-diazabicyclo [2.2.1]heptan-2-yl)-3,6-dimethyl-4-oxo-3,4-dihydroquinazolin-8-yl)ethyl)amino)-N-(methylsulfonyl) picolinamide], the IC50 in assay [1] (setting [3]) is no less than 5000 nM; in assay [2] (setting [4]), 250 to 500 nM.
For the compound `Cc1cc([C@@H](C)Nc2ccc(Cl)nc2C(=O)NS(C)(=O)=O)c2nc(N3Cc4cn(CC5CC5)nc4C3)n(C)c(=O)c2c1` [Compound 683, (R)-6-chloro-3-((1-(2-(2-(cyclopropylmethyl)-2,6-dihydropyrrolo[3,4-c]pyrazol-5(4H)-yl)-3,6-dimethyl-4-oxo-3,4-dihydroquinazolin-8-yl)ethyl)amino)-N-(methylsulfonyl) picolinamide], the concentration for half-maximal inhibition (IC50) in assay [1] (setting [3]) is 1000 to 5000 nM; in assay [2] (setting [4]), 250 to 500 nM.
Consider `Cc1cc([C@@H](C)Nc2ccc(Cl)nc2C(=O)NS(C)(=O)=O)c2nc(-c3ccc(N4CCC(O)CC4)nc3)n(C)c(=O)c2c1` [Compound 177, (R)-6-chloro-3-((1-(2-(6-(4-hydroxypiperidin-1-yl)pyridin-3-yl)-3,6-dimethyl-4-oxo-3,4-dihydroquinazolin-8-yl)ethyl)amino)-N-(methylsulfonyl) picolinamide], for which the IC50 was 1000 to 5000 nM in assay [1] (setting [5]) and less than 250 nM in assay [2] (setting [6]).
The matching figures for `Cc1cc([C@@H](C)Nc2ccc(Cl)nc2C(=O)NS(C)(=O)=O)c2nc(N3CCC4(CCCCOC4)CC3)n(C)c(=O)c2c1` [Compound 328, (R)-6-chloro-3-((1-(3,6-dimethyl-4-oxo-2-(8-oxa-3-azaspiro[5.6]dodecan-3-yl)-3,4-dihydroquinazolin-8-yl)ethyl)amino)-N-(methylsulfonyl) picolinamide]: no less than 5000 nM and 250 to 500 nM.
For the compound `Cc1cc([C@@H](C)Nc2ccc(Cl)nc2C(=O)NS(C)(=O)=O)c2nc(N3CCC[C@H](c4ccn(C(F)F)n4)C3)n(C)c(=O)c2c1` (relative stereo) [Compound 770, 6-chloro-3-(((R)-1-(2-((R*)-3-(1-(difluoromethyl)-1H-pyrazol-3-yl)piperidin-1-yl)-3,6-dimethyl-4-oxo-3,4-dihydroquinazolin-8-yl)ethyl)amino)-N-(methylsulfonyl) picolinamide], the IC50 in assay [1] (setting [3]) was no less than 5000 nM; in assay [2] (setting [4]), 250 to 500 nM.
Take `Cc1cc([C@@H](C)Nc2ccc(Cl)nc2C(=O)NS(C)(=O)=O)c2nc(N3CCC(n4cc(-c5cccnc5)cn4)CC3)n(C)c(=O)c2c1` [Compound 234, (R)-6-chloro-3-((1-(3,6-dimethyl-4-oxo-2-(4-(4-(pyridin-3-yl)-1H-pyrazol-1-yl)piperidin-1-yl)-3,4-dihydroquinazolin-8-yl)ethyl)amino)-N-(methylsulfonyl) picolinamide]: the values for the half-inhibitory concentration (IC50) in assay [1] (setting [5]) and in assay [2] (setting [6]) were 1000 to 5000 nM and less than 250 nM, respectively.
